According to patent US12533357B2, “Treatment for acute myeloid leukemia or myelodysplastic syndrome” (UNIVERSITY HEALTH NETWORK, priority 2019, dated 2026):

Experiments:
[1] = test system: MOLT-4 acute lymphoblastic leukemia xenograft; assay: MOLT-4 xenograft tumor growth in SCID mice; type: in vivo; settings: day 13; 0.5 mg/kg IP weekly; p=0.21
Protocol: (§1) The human acute lymphoblastic leukemia cell line MOLT-4 was acquired from American Type Culture Collection (Manassas, VA, USA) and grown in RPMI medium containing 100 units/mL penicillin G sodium, 100 μg/mL streptomycin sulfate. The media was supplemented with 10% heat-inactivated fetal bovine serum, 2 mM L-glutamine, and 0.11% sodium pyruvate. The tumor cells were maintained in a humidified environment of 5% CO2 and 95% air at 37° C. Cells were verified to be free of mouse pathogens by IMPACT IV PCR analysis (IDEXX RADIL, Colombia, MO, USA) before injection.
(§2) Female SCID mice were purchased from the Ontario Cancer Institute and received and acclimated at the MaRS-TMDT Animal Resources Centre for 2 weeks prior to the start of the experiment. The mice were fed ad libitum autoclaved water and Rodent Lab Diet (Harlan Teklad LM-485) consisting of 19% crude protein, 5% crude fat, and 5% crude fiber. Mice were housed in microisolator cages and maintained in an environment with a 12-hour light cycle at 20-22° C. and 40-60% humidity. On the day of implantation, MOLT-4 cells were harvested and resuspended with serum free DMEM to a concentration of 1×10^8/mL and each mouse was injected subcutaneously with a volume of 0.1 mL containing 1×10^7 MOLT-4 cells in the right rear flank.
Animals were dosed Compound (I) via oral gavage in a volume of 10 mL/kg. The animals were dosed with a 2.25 mm×50 mm curved gavage needle affixed to a 1 mL syringe. Vincristine was dosed by IP injection once per week.
(§3) Toxicity was evaluated by body weight measurements and clinical observations. The mice were observed daily for overt signs of any adverse, treatment related side effects, and clinical signs of toxicity. Acceptable toxicity was set at a group mean body weight loss of less than 20% during the study and not more than one treatment related death in a group. Animals were monitored for body weights and tumor growth where tumor volumes were calculated using the formula: tumor volume=width^2×length/2.
(§4) The study evaluated Compound (I) fumarate administered by oral gavage for 21 days, either daily at 7.5 mg/kg or 2 days on/5 days off at 13.5 mg/kg, in comparison to the standard-of-care agent vincristine, dosed in 4 weekly intraperitoneal injections of 0.5 mg/kg, in the MOLT-4 […] xenograft model in SCID (severe combined immunodeficiency) mice. Xenografts were established by subcutaneously injecting 1×10^7 tumor cells into the right flank of female SCID mice. Treatment was initiated 9 days following implantation when tumor volumes reached a mean volume of approximately 250 mm^3.

[2] = test system: MV4-11 acute myeloid leukemia xenograft; assay: MV4-11 xenograft tumor growth in SCID mice; type: in vivo; settings: day 13; vincristine 0.5 mg/kg IP weekly; p=0.14
Protocol: as §1, with “myeloid” for “lymphoblastic”, “MV4-11” for “MOLT-4”
as §2, with “MV4-11” for “MOLT-4”
Animals were dosed Compound (I) via oral gavage in a volume of 10 ml/kg. The animals were dosed with a 2.25 mm×50 mm curved gavage needle affixed to a 1 ml syringe. Vincristine was dosed by IP injection once per week.
as §3
as §4, with “gavage,” for “gavage for 21 days,”, “MV4-11” for “MOLT-4”, “14” for “9”, “90” for “250”, “mm^3. […] Animals were dosed in the 2-on/5-off schedule for 21 days. […] By day 13, the average volume of the control tumors was 878 mm^3, averaging […] tumor growth over the 13 days. On day 13 the average tumor growth inhibition in the vincristine treated arm was 85% (p=0.14).” for “mm^3.”

CC[C@]1(O)C[C@H]2CN(CCc3c([nH]c4ccccc34)[C@@](C(=O)OC)(c3cc4c(cc3OC)N(C=O)[C@H]3[C@@](O)(C(=O)OC)[C@H](OC(C)=O)[C@]5(CC)C=CCN6CC[C@]43[C@@H]65)C2)C1 [vincristine, reference compound]
average tumor growth inhibition [1]: 18%
average tumor growth inhibition [2]: 85%
